From ChEMBL document CHEMBL5506041, “Identification of 1,3,4-Thiadiazolyl-Containing Thiazolidine-2,4-dione Derivatives as Novel PTP1B Inhibitors with Antidiabetic Activity” (J Med Chem, 2024)
Activity calls are given as the source filed them. No cut-off for these calls is given here.

Tests used:
[1] = molecular target: T1, Tyrosine-protein phosphatase non-receptor type 1 (Homo sapiens, UniProt P18031); experiment: Inhibition of PTP1B (unknown origin) using DiFMUP as substrate incubated for 10 mins by fluorescence based analysis
T1 sequence (P18031 whole entry): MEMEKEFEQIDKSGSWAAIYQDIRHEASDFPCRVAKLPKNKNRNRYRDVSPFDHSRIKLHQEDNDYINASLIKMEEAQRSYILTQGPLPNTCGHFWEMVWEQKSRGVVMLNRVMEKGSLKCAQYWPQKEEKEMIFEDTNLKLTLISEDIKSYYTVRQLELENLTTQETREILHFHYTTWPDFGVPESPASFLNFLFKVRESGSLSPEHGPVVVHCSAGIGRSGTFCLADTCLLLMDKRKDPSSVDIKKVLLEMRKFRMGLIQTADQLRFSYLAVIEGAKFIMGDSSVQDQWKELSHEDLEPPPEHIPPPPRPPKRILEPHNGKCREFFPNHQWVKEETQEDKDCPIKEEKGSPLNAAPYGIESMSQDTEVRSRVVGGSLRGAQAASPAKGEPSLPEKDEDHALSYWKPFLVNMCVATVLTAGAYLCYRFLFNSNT

Mus musculus [2] = experiment: Hypoglycemic activity in streptozotocin-induced C57/6J mouse model assessed as reduction in fasting blood glucose level at 50 mg/kg, ip administered once a week and fasted for 12 hrs; assay type: functional, organism-based
Mus musculus [3] = experiment: Anti-diabetic activity in streptozotocin-induced C57/6J mouse model assessed as reduction in triglyceride level in serum at 25 to 50 mg/kg, ip administered for 4 weeks; assay type: functional, organism-based; details: dose 25-50 mg/kg
Mus musculus [4] = experiment: Anti-diabetic activity in streptozotocin-induced C57/6J mouse model assessed as reduction in total cholesterol level in serum at 25 to 50 mg/kg, ip administered for 4 weeks; assay type: functional, organism-based; details: dose 25-50 mg/kg
L02 = experiment: Cytotoxicity activity against human L02 cells upto 32 uM by MTT assay; assay type: toxicity, cell-based; details: l02, 32 µM
HepG2 [5] = experiment: Inhibition of insulin resistance in palmitic acid-induced human HepG2 cells assessed as upregulation of AKT expression incubated for 24 hrs followed by insulin addition for 10 mins; assay type: functional, cell-based; details: dose 2-20 µM
HEK293 = experiment: Cytotoxicity activity against HEK293 cells upto 32 uM by MTT assay; assay type: toxicity, cell-based; details: human, hek293, 32 µM
Mus musculus [6] = experiment: Hypoglycemic activity in streptozotocin-induced C57/6J mouse model assessed as reduction in fasting blood glucose level at 25 to 50 mg/kg, ip administered once a week and fasted for 12 hrs; assay type: functional, organism-based; details: dose 25-50 mg/kg
[7] = molecular target: T2, Tyrosine-protein phosphatase non-receptor type 1 (Homo sapiens) (UniProt P18031); experiment: Potency index, ratio of lithocholic acid IC50 to test compound IC50 for inhibition of PTP1B (unknown origin) using DiFMUP as substrate incubated for 10 mins by fluorescence based analysis
T2 sequence (whole entry): T1 sequence (P18031 whole entry)

HepG2 [8] = experiment: Inhibition of insulin resistance in palmitic acid-induced human HepG2 cells assessed as upregulation of IRS1 expression incubated for 24 hrs followed by insulin addition for 10 mins; assay type: functional, cell-based; details: dose 2-20 µM
Mus musculus [9] = experiment: Anti-diabetic activity in streptozotocin-induced C57/6J mouse model assessed as reduction in fasted blood glucose level at 50 mg/kg, ip preadministered with compound for 3 weeks followed by fasting for 12 hrs and measured after 120 mins post glucose administration by OGTT analysis; assay type: functional, organism-based; details: time 518.0 hrs
[10] = molecular target: T2, Tyrosine-protein phosphatase non-receptor type 1 (Homo sapiens); experiment: Noncompetitive inhibition of PTP1B1 (unknown origin) upto 1 uM by Lineweaver-burk plot analysis
[11] = molecular target: T2, Tyrosine-protein phosphatase non-receptor type 1 (Homo sapiens); experiment: Reversible inhibition of PTP1B1 (unknown origin) upto 1 uM by Lineweaver-burk plot analysis

| IC50 [1] [µM] | Compound | also measured |
| --- | --- | --- |
| 1.27 | O=C1NC(=O)/C(=C\c2ccc(C(=O)Nc3nnc(SCc4ccccc4)s3)cc2)S1 |  |
| 0.61 | N#Cc1cccc(CSc2nnc(NC(=O)c3ccc(/C=C4/SC(=O)NC4=O)cc3)s2)c1 |  |
| 2.17 | N#Cc1ccccc1CSc1nnc(NC(=O)c2ccc(/C=C3/SC(=O)NC3=O)cc2)s1 |  |
| 1.21 | COC(=O)c1ccccc1CSc1nnc(NC(=O)c2ccc(/C=C3/SC(=O)NC3=O)cc2)s1 |  |
| 1.12 | COC(=O)c1cccc(CSc2nnc(NC(=O)c3ccc(/C=C4/SC(=O)NC4=O)cc3)s2)c1 |  |
| 3.76 | O=C1NC(=O)/C(=C\c2ccc(C(=O)Nc3nnc(SCc4cccc([N+](=O)[O-])c4)s3)cc2)S1 |  |
| 1.24 | O=C1NC(=O)/C(=C/c2ccc(C(=O)Nc3nnc(SCc4ccc(F)cc4F)s3)cc2)S1 |  |
| 1.39 | O=C1NC(=O)/C(=C\c2ccc(C(=O)Nc3nnc(SCc4ccc(Cl)cc4)s3)cc2)S1 |  |
| 1.85 | O=C1NC(=O)/C(=C\c2ccc(C(=O)Nc3nnc(SCc4ccccc4F)s3)cc2)S1 |  |
| 0.59 | O=C1NC(=O)/C(=C\c2ccc(C(=O)Nc3nnc(SCc4ccc(Br)cc4)s3)cc2)S1 |  |
| 1.07 | O=C1NC(=O)/C(=C\c2ccc(C(=O)Nc3nnc(SCc4cccc(C(F)(F)F)c4)s3)cc2)S1 |  |
| 1.87 | O=C1NC(=O)/C(=C\c2ccc(C(=O)Nc3nnc(SCc4ccccc4Br)s3)cc2)S1 |  |
| 4.09 | O=C1NC(=O)/C(=C\c2ccc(C(=O)Nc3nnc(SCc4ccccc4[N+](=O)[O-])s3)cc2)S1 |  |
| 4.68 | Cc1ccccc1CSc1nnc(NC(=O)c2ccc(/C=C3/SC(=O)NC3=O)cc2)s1 |  |
| 1.84 | O=C1NC(=O)/C(=C\c2ccc(C(=O)Nc3nnc(SCc4ccc(F)cc4)s3)cc2)S1 |  |
| 0.98 | O=C1NC(=O)/C(=C/c2ccc(C(=O)Nc3nnc(SCc4ccc5ncccc5c4)s3)cc2)S1 |  |
| 0.75 | O=C1NC(=O)/C(=C/c2ccc(C(=O)Nc3nnc(SCc4ccc(F)c(F)c4)s3)cc2)S1 |  |
| 0.65 | COC(=O)c1ccc(CSc2nnc(NC(=O)c3ccc(/C=C4/SC(=O)NC4=O)cc3)s2)cc1 |  |
| 3.77 | O=C1NC(=O)/C(=C/c2ccc(C(=O)Nc3nnc(SCc4ccc5ccccc5c4)s3)cc2)S1 |  |

Continued, compound first:

| Compound | IC50 [1] [µM] | also measured |
| --- | --- | --- |
| O=C1NC(=O)/C(=C\c2ccc(C(=O)Nc3nnc(SCc4cccc(F)c4)s3)cc2)S1 | 2.08 |  |
| Cc1cccc(CSc2nnc(NC(=O)c3ccc(/C=C4/SC(=O)NC4=O)cc3)s2)c1 | 3.85 |  |
| O=C1NC(=O)/C(=C\c2ccc(C(=O)Nc3nnc(SCc4ccccc4-c4ccccc4)s3)cc2)S1 | 3.56 |  |
| O=C1NC(=O)/C(=C\c2ccc(C(=O)Nc3nnc(SCc4cccc(Br)c4)s3)cc2)S1 | 0.89 |  |
| O=C1NC(=O)/C(=C/c2ccc(C(=O)Nc3nnc(SCc4ccc(F)c(F)c4F)s3)cc2)S1 | 1.13 |  |
| O=C1NC(=O)/C(=C\c2ccc(C(=O)Nc3nnc(SCc4ccccc4OC(F)(F)F)s3)cc2)S1 | 1.32 |  |
| C[C@H]1O[C@H](O[C@H]2[C@H](O)[C@@H](O)[C@@H](O[C@H]3[C@H](O)[C@@H](O)C(O)O[C@@H]3CO)O[C@@H]2CO)[C@H](O)[C@@H](O)[C@@H]1N[C@H]1C=C(CO)[C@@H](O)[C@H](O)[C@H]1O (some centres undefined) |  | Activity (Mus musculus [2]): Active |
| O=C1NC(=O)/C(=C\c2ccc(C(=O)Nc3nnc(SCc4cccc(Cl)c4)s3)cc2)S1 | 1.64 |  |
| O=C1NC(=O)/C(=C\c2ccc(C(=O)Nc3nnc(SCc4ccc(OC(F)(F)F)cc4)s3)cc2)S1 | 0.89 |  |
| C[C@H](CCC(=O)O)[C@H]1CC[C@H]2[C@@H]3CC[C@@H]4C[C@H](O)CC[C@]4(C)[C@H]3CC[C@]12C [LITHOCHOLIC ACID] | 9.62 |  |
| O=C1NC(=O)/C(=C\c2ccc(C(=O)Nc3nnc(SCc4ccc([N+](=O)[O-])cc4)s3)cc2)S1 | 1.82 |  |
| O=C1NC(=O)/C(=C/c2ccc(C(=O)Nc3nnc(SCc4ccc(C(F)(F)F)cc4)s3)cc2)S1 | 0.91 |  |
| CC(C)(C)c1ccc(CSc2nnc(NC(=O)c3ccc(/C=C4\SC(=O)NC4=O)cc3)s2)cc1 | 1.35 |  |
| CS(=O)(=O)c1ccc(CSc2nnc(NC(=O)c3ccc(/C=C4\SC(=O)NC4=O)cc3)s2)cc1 | 1.41 |  |
| O=C1NC(=O)/C(=C\c2ccc(C(=O)Nc3nnc(SCc4ccccc4C(F)(F)F)s3)cc2)S1 | 1.18 |  |
| O=C1NC(=O)/C(=C/c2ccc(C(=O)Nc3nnc(SCc4ccc(-c5ccccc5)cc4)s3)cc2)S1 | 1.47 |  |
| O=C1NC(=O)/C(=C\c2ccc(C(=O)Nc3nnc(SCc4cccc(OC(F)(F)F)c4)s3)cc2)S1 | 1.48 |  |
| N#Cc1ccc(CSc2nnc(NC(=O)c3ccc(/C=C4/SC(=O)NC4=O)cc3)s2)cc1 | 0.41 | Activity (Mus musculus [3]): Active; Activity (Mus musculus [4]): Active; Activity (L02): Non-Toxic; inhibition (HepG2 [5]): Dose-Dependent Effect; Activity (HEK293): Non-Toxic; Activity (Mus musculus [6]): Active; Ratio IC50 [7]: 23.5; inhibition (HepG2 [8]): Dose-Dependent Effect; Activity (Mus musculus [9]): Active; inhibition [10]: Active; inhibition [11]: Active |
| COc1cccc(CSc2nnc(NC(=O)c3ccc(/C=C4/SC(=O)NC4=O)cc3)s2)c1 | 3.22 |  |
| O=C1NC(=O)/C(=C/c2ccc(C(=O)Nc3nnc(SCc4ccc(F)cc4Cl)s3)cc2)S1 | 1.07 |  |
| O=C1NC(=O)/C(=C/c2ccc(C(=O)Nc3nnc(SCc4cc(C(F)(F)F)cc(C(F)(F)F)c4)s3)cc2)S1 | 1.73 |  |
| Cc1ccc(CSc2nnc(NC(=O)c3ccc(/C=C4/SC(=O)NC4=O)cc3)s2)cc1 | 0.88 |  |
| O=C1NC(=O)/C(=C/c2ccc(C(=O)Nc3nnc(SCc4ccc(F)c(Cl)c4)s3)cc2)S1 | 0.82 |  |
| O=C1NC(=O)/C(=C\c2ccc(C(=O)Nc3nnc(SCc4ccccc4Cl)s3)cc2)S1 | 2.91 |  |
